Experimental data reported in PubChem BioAssay (NCI).
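Cultured in 96-well plates, cells were exposed to test compound for 48 hours across five concentrations. At the GI50, growth is halved. TGI marks complete inhibition of growth.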

Columns and labels:
Assay in all cases: DTP human tumour cell line panel, 48 h
786-0 renal = tested on: 786-0 renal
A498 renal = tested on: A498 renal
A549 NSCLC = tested on: A549 NSCLC
ACHN renal = tested on: ACHN renal
BT-549 breast = tested on: BT-549 breast
CAKI-1 renal = tested on: CAKI-1 renal
CCRF-CEM leukemia = tested on: CCRF-CEM leukemia
COLO 205 colon = tested on: COLO 205 colon
DU-145 prostate = tested on: DU-145 prostate
EKVX NSCLC = tested on: EKVX NSCLC
HCC-2998 colon = tested on: HCC-2998 colon
HCT-116 colon = tested on: HCT-116 colon
HCT-15 colon = tested on: HCT-15 colon
HL-60(TB) leukemia = tested on: HL-60(TB) leukemia
HOP-62 NSCLC = tested on: HOP-62 NSCLC
HOP-92 NSCLC = tested on: HOP-92 NSCLC
HS 578T breast = tested on: HS 578T breast
HT29 colon = tested on: HT29 colon
IGROV1 ovarian = tested on: IGROV1 ovarian
K-562 leukemia = tested on: K-562 leukemia
KM12 colon = tested on: KM12 colon
LOX IMVI melanoma = tested on: LOX IMVI melanoma
M14 melanoma = tested on: M14 melanoma
MALME-3M melanoma = tested on: MALME-3M melanoma
MCF7 breast = tested on: MCF7 breast
MDA-MB-231 breast = tested on: MDA-MB-231 breast
MDA-MB-435 = tested on: MDA-MB-435
MOLT-4 leukemia = tested on: MOLT-4 leukemia
NCI-H226 lung = tested on: NCI-H226 lung
NCI-H460 lung = tested on: NCI-H460 lung
NCI-H522 lung = tested on: NCI-H522 lung
NCI/ADR-RES ovarian = tested on: NCI/ADR-RES ovarian
OVCAR-4 ovarian = tested on: OVCAR-4 ovarian
OVCAR-5 ovarian = tested on: OVCAR-5 ovarian
OVCAR-8 ovarian = tested on: OVCAR-8 ovarian
PC-3 prostate = tested on: PC-3 prostate
RPMI-8226 leukemia = tested on: RPMI-8226 leukemia
RXF 393 renal = tested on: RXF 393 renal
SF-268 CNS = tested on: SF-268 CNS
SF-295 CNS = tested on: SF-295 CNS
SF-539 CNS = tested on: SF-539 CNS
SK-MEL-2 melanoma = tested on: SK-MEL-2 melanoma
SK-MEL-28 melanoma = tested on: SK-MEL-28 melanoma
SK-MEL-5 melanoma = tested on: SK-MEL-5 melanoma
SK-OV-3 ovarian = tested on: SK-OV-3 ovarian
SN12C renal = tested on: SN12C renal
SNB-19 CNS = tested on: SNB-19 CNS
SNB-75 CNS = tested on: SNB-75 CNS
SR leukemia = tested on: SR leukemia
SW-620 colon = tested on: SW-620 colon
T-47D breast = tested on: T-47D breast
TK-10 renal = tested on: TK-10 renal
U251 CNS = tested on: U251 CNS
UACC-257 melanoma = tested on: UACC-257 melanoma
UACC-62 melanoma = tested on: UACC-62 melanoma
UO-31 renal = tested on: UO-31 renal

In the case of `CCNC(=O)Oc1ccc(/C(=C(/C)c2ccc(Cl)cc2)c2ccc(OCCN3CCCCCC3)cc2)cc1`, the GI50 (786-0 renal) is reported as 1.61 µM, the TGI (786-0 renal) is reported as 3.02 µM and the GI50 (A498 renal) is reported as 1.75 µM. For the same compound, the TGI (A498 renal) was 3.78 µM, the GI50 (A549 NSCLC) was 1.7 µM and the TGI (A549 NSCLC) was 3.27 µM. For the same compound, the GI50 (ACHN renal) was 1.75 µM, the TGI (ACHN renal) was 3.2 µM and the GI50 (BT-549 breast) was 1.74 µM. For the same compound, the TGI (BT-549 breast) was 3.14 µM, the GI50 (CAKI-1 renal) was 1.64 µM and the TGI (CAKI-1 renal) was 3.09 µM. It also gave a GI50 (CCRF-CEM leukemia) of 1.64 µM, a TGI (CCRF-CEM leukemia) of 9.81 µM and a GI50 (COLO 205 colon) of 1.74 µM. For the same compound, the TGI (COLO 205 colon) was 3.18 µM, the GI50 (DU-145 prostate) was 2.29 µM and the TGI (DU-145 prostate) was 5.37 µM. It also gave a GI50 (EKVX NSCLC) of 1.91 µM, a TGI (EKVX NSCLC) of 4.77 µM and a GI50 (HCC-2998 colon) of 1.72 µM. It also gave a TGI (HCC-2998 colon) of 3.16 µM, a GI50 (HCT-116 colon) of 1.62 µM and a TGI (HCT-116 colon) of 3 µM. It also gave a GI50 (HCT-15 colon) of 1.5 µM, a TGI (HCT-15 colon) of 2.91 µM and a GI50 (HL-60(TB) leukemia) of 1.82 µM. For the same compound, the TGI (HL-60(TB) leukemia) was 4.45 µM, the GI50 (HOP-62 NSCLC) was 1.55 µM and the TGI (HOP-62 NSCLC) was 3 µM. It also gave a GI50 (HOP-92 NSCLC) of 1.41 µM, a TGI (HOP-92 NSCLC) of 2.86 µM and a GI50 (HS 578T breast) of 1.95 µM. It also gave a TGI (HS 578T breast) of 4.26 µM, a GI50 (HT29 colon) of 1.7 µM and a TGI (HT29 colon) of 3.27 µM. It also gave a GI50 (IGROV1 ovarian) of 1.8 µM, a TGI (IGROV1 ovarian) of 3.41 µM and a GI50 (K-562 leukemia) of 1.39 µM. It also gave a TGI (K-562 leukemia) of 3.95 µM, a GI50 (KM12 colon) of 2.63 µM and a TGI (KM12 colon) of 6.8 µM. For the same compound, the GI50 (LOX IMVI melanoma) was 1.69 µM, the TGI (LOX IMVI melanoma) was 3.12 µM and the GI50 (M14 melanoma) was 1.7 µM. It also gave a TGI (M14 melanoma) of 3.13 µM, a GI50 (MALME-3M melanoma) of 1.78 µM and a TGI (MALME-3M melanoma) of 3.42 µM. For the same compound, the GI50 (MCF7 breast) was 0.404 µM, the TGI (MCF7 breast) was 2.32 µM and the GI50 (MDA-MB-231 breast) was 1.84 µM. It also gave a TGI (MDA-MB-231 breast) of 3.48 µM, a GI50 (MDA-MB-435) of 1.77 µM and a TGI (MDA-MB-435) of 3.24 µM. The GI50 (MOLT-4 leukemia) was 2.1 µM, the TGI (MOLT-4 leukemia) was 6.06 µM and the GI50 (NCI-H226 lung) was 2.61 µM. The TGI (NCI-H226 lung) was 8.2 µM, the GI50 (NCI-H460 lung) was 1.75 µM and the TGI (NCI-H460 lung) was 3.24 µM. The GI50 (NCI-H522 lung) was 1.78 µM, the TGI (NCI-H522 lung) was 3.46 µM and the GI50 (NCI/ADR-RES ovarian) was 1.84 µM. For the same compound, the TGI (NCI/ADR-RES ovarian) was 3.75 µM, the GI50 (OVCAR-4 ovarian) was 1.96 µM and the TGI (OVCAR-4 ovarian) was 4.55 µM. It also gave a GI50 (OVCAR-5 ovarian) of 1.99 µM, a TGI (OVCAR-5 ovarian) of 4.38 µM and a GI50 (OVCAR-8 ovarian) of 1.78 µM. For the same compound, the TGI (OVCAR-8 ovarian) was 3.4 µM, the GI50 (PC-3 prostate) was 1.78 µM and the TGI (PC-3 prostate) was 3.53 µM. It also gave a GI50 (RPMI-8226 leukemia) of 1.8 µM, a TGI (RPMI-8226 leukemia) of 3.93 µM and a GI50 (RXF 393 renal) of 1.46 µM. For the same compound, the TGI (RXF 393 renal) was 2.93 µM, the GI50 (SF-268 CNS) was 2.2 µM and the TGI (SF-268 CNS) was 5.54 µM. The GI50 (SF-295 CNS) was 1.6 µM, the TGI (SF-295 CNS) was 2.97 µM and the GI50 (SF-539 CNS) was 1.72 µM. It also gave a TGI (SF-539 CNS) of 3.14 µM, a GI50 (SK-MEL-2 melanoma) of 1.77 µM and a TGI (SK-MEL-2 melanoma) of 3.33 µM. It also gave a GI50 (SK-MEL-28 melanoma) of 1.74 µM, a TGI (SK-MEL-28 melanoma) of 3.18 µM and a GI50 (SK-MEL-5 melanoma) of 1.68 µM. For the same compound, the TGI (SK-MEL-5 melanoma) was 3.05 µM, the GI50 (SK-OV-3 ovarian) was 1.87 µM and the TGI (SK-OV-3 ovarian) was 3.7 µM. The GI50 (SN12C renal) was 1.67 µM, the TGI (SN12C renal) was 3.18 µM and the GI50 (SNB-19 CNS) was 2.5 µM. It also gave a TGI (SNB-19 CNS) of 6.88 µM, a GI50 (SNB-75 CNS) of 1.99 µM and a TGI (SNB-75 CNS) of 4.02 µM. The GI50 (SR leukemia) was 1.35 µM, the TGI (SR leukemia) was 4.91 µM and the GI50 (SW-620 colon) was 1.71 µM. The TGI (SW-620 colon) was 3.22 µM, the GI50 (T-47D breast) was 1.39 µM and the TGI (T-47D breast) was 4.19 µM. It also gave a GI50 (TK-10 renal) of 2.27 µM, a TGI (TK-10 renal) of 6.75 µM and a GI50 (U251 CNS) of 1.49 µM. It also gave a TGI (U251 CNS) of 2.86 µM, a GI50 (UACC-257 melanoma) of 1.71 µM and a TGI (UACC-257 melanoma) of 3.3 µM. The GI50 (UACC-62 melanoma) was 1.79 µM, the TGI (UACC-62 melanoma) was 3.28 µM and the GI50 (UO-31 renal) was 1.44 µM. The TGI (UO-31 renal) was 2.79 µM.
